{
  "source": "patent US20130116215A1",
  "about": "“COMBINATION THERAPIES FOR TREATING NEUROLOGICAL DISORDERS” (priority 2011, published 2013)",
  "key": {"[1]": {"biological_target": "T1, Acetylcholinesterase (AChE) (Electrophorus electricus, UniProt O42275)", "T1 construct": "purchased Invitrogen, Carlsbad, Calif", "T1 sequence (O42275 24-633)": "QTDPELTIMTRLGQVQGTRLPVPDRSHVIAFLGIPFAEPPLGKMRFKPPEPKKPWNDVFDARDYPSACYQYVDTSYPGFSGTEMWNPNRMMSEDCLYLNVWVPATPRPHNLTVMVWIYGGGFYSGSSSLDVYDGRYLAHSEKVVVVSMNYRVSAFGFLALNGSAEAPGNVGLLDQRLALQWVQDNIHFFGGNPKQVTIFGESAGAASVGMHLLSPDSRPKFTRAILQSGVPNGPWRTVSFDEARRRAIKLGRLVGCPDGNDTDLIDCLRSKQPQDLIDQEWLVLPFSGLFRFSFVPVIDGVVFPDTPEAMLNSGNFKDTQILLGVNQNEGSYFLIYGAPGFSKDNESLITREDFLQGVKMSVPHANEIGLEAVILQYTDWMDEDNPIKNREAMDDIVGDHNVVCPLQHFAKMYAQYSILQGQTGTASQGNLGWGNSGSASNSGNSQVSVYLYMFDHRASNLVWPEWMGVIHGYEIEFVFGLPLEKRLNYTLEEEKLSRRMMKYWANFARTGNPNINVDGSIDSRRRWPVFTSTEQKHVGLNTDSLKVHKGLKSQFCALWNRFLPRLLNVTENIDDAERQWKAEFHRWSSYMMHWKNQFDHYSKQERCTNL", "format": "biochemical", "protocol": "Current therapy for AD is based on improving the brain synaptic availability of acetylcholine by using acetylcholinesterase inhibitors (AChEls). Therefore, potential drug effect on neuronal dysfunction was studied with an in vitro Acetylcholinesterase (AChE) assay using Amplex Red Acetylcholine/Assay Kit (Invitrogen, Carlsbad, Calif.). The efficacy of ridogrel on memory was obtained running dose-response (10-100 μM). 10 μM Eserine, an anticholinesterase drug, was used as positive control.\nCurrent therapy for AD is based on improving the brain synaptic availability of acetylcholine by using acetylcholinesterase inhibitors (AChEls). Therefore, potential drug effect on neuronal dysfunction was studied with an in vitro Acetylcholinesterase (AChE) assay using Amplex Red Acetylcholine/Assay Kit (Invitrogen, Carlsbad, Calif.). The efficacy of diminazene aceturate on memory was obtained running dose-response (1-500 μM). 10 μM Eserine, an anticholinesterase drug, was used as positive control."}, "TAU phosphorylation": {"tested_on": "TAU phosphorylation", "assay": "phospho-tau and Tau ELISA assay in tau-transfected HT4 cells", "format": "cell-based", "details": "tau-transfected mouse hippocampal-derived HT4 cell line", "protocol": "Docetaxel is a clinically well established anti-mitotic chemotherapy medication used mainly for the treatment of breast, ovarian and non-small cell lung cancer which had shown close proximity with Tau motive. Neurofibrillary tangles, a hallmark of AD, are intracellular abnormally aggregates of hyperphosphorylated protein TAU [19]. In that sense, Tau pathology was evaluated on tau-transfected in a mouse hippocampal-derived HT4 cell line using a phospho-tau and Tau ELISA assay (Sigma-aldrich, St Louis, Mo.). The level of TAU phosphorylation is used as an indicator of the degree of TAU pathology."}, "[2]": {"tested_on": "cells stably expressing wild-type presenilin-1 an Aβ precursor protein", "assay": "Aβ1-40 and Aβ1-42 ELISA on extracellular media of treated cells", "format": "cell-based", "text": "The putative neurological effects of this drug have been confirmed experimentally using sensitive Aβ1-40 and Aβ1-42 ELISA kits (Wako, Osaka, Japan) on the extracellular media of treated and untreated cells stably expressing wild-type presenilin-1 an Aβ precursor protein. […] Aggregation and fibril formation of Aβ peptides are central events in the pathogenesis of Alzheimer's disease. Previous studies have established the ratio of Aβ1-40 to Aβ1-42 as an important factor in determining the fibrillogenesis, and toxicity of amyloid plaques."}, "[3]": {"details": "extracellular media, treated vs untreated cells"}},
  "note": "Entries after “also recorded” stand apart in the source; their conditions may differ. Where two headings read alike, the source gives them in different places.",
  "data": [
    {"compound": "N=C(N)c1ccc(/N=N/Nc2ccc(C(=N)N)cc2)cc1", "note": "[Diminazene Aceturate, Diminazene aceturate]", "values": [
      {"measurement": "inhibition of AChE", "setting": "[1]; dose-response 1-500 μM, inhibition with dose 500 to 10 μM", "value": "dose-dependent inhibition"}
    ]},
    {"compound": "CC(=O)O[C@@]12CO[C@@H]1C[C@H](O)[C@@]1(C)C(=O)[C@H](O)C3=C(C)[C@@H](OC(=O)[C@H](O)[C@@H](NC(=O)OC(C)(C)C)c4ccccc4)C[C@@](O)([C@@H](OC(=O)c4ccccc4)[C@H]21)C3(C)C", "note": "[Docetaxel]", "values": [
      {"measurement": "TAU phosphorylation (pTAU/TAU ratio)", "setting": "TAU phosphorylation", "value": "significantly reduces"},
      {"measurement": "TAU phosphorylation (pTAU/TAU ratio)", "setting": "TAU phosphorylation; listed as docetaxel", "value": "reduces TAU phosphorylation"}
    ]},
    {"compound": "Cc1c(OCC(F)(F)F)ccnc1C[S+]([O-])c1nc2ccccc2[nH]1", "note": "(stereo not shown) [Lansoprazole]", "values": [
      {"measurement": "Aβ1-40 peptide production", "setting": "[2]; [3]", "value": "significantly increases"},
      {"measurement": "Aβ1-42 peptide production", "setting": "[2]; [3]", "value": "significantly increase"},
      {"measurement": "Aβ1-40/Aβ1-42 ratio", "setting": "[2]; treated cells", "value": "significant reduction; also recorded: reduces"}
    ]},
    {"compound": "O=C(O)CCCCO/N=C(/c1cccnc1)c1cccc(C(F)(F)F)c1", "note": "[Ridogrel]", "values": [
      {"measurement": "inhibition of AChE", "setting": "[1]; dose-response 10-100 μM, inhibition with dose 100 to 25 μM", "value": "dose-dependent inhibition"}
    ]}
  ]
}
